Earlier results as cited in patent US20060216726A1, “Method for optimizing thiopurine efficacy and toxicity using mass spectrometry” (Prometheus Laboratories Inc., priority 2004, published 2006).

Details: patients with inflammatory bowel disease, azathioprine

6-thioguanine nucleotide [6-TGN]
Therapeutic threshold associated with efficacy: > 235 pmol/8×10^8 cells
